#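 Grown in 96-well plates, cells were treated for 48 hours with each compound at five concentrations. Insufficient inhibition: endpoint recorded as highest concentration tested. At the GI50, growth is halved.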 Calls of active or inactive are those of the source. Rule as the data show it: active = GI50 up to about 1.1 µM and inactive = higher.
# Key:
# Test in all cases: NCI anticancer screen, dose series, 48 h
# [1] = tested on: A549
# [2] = tested on: CCRF-CEM
# [3] = tested on: EKVX
# [4] = tested on: HCT-15
# [5] = tested on: HT-29
# [6] = tested on: IGROV-1
# [7] = tested on: LOX IMVI
# [8] = tested on: M14
# [9] = tested on: MDA-MB-231
# [10] = tested on: OVCAR-5
# [11] = tested on: SF-295
# [12] = tested on: SK-MEL-2
# [13] = tested on: SN12C
# [14] = tested on: SNB-19
# [15] = tested on: SR
# [16] = tested on: T47D
# [17] = tested on: UACC-257
# [18] = tested on: UO-31
# [19] = tested on: Malme-3M
# [20] = tested on: RXF 393
Structure (SMILES),GI50 [1],GI50 [2],GI50 [3],GI50 [4] [µM],GI50 [5],GI50 [6],GI50 [7],GI50 [8],GI50 [9],GI50 [10],GI50 [11],GI50 [12],GI50 [13],GI50 [14],GI50 [15],GI50 [16],GI50 [17],GI50 [18],GI50 [19],GI50 [20]
O=C(/C=C/C=C/c1ccccc1)c1ccc2c(c1)CCCC2,49.8 µM (inactive),27.8 µM (inactive),36.5 µM (inactive),36,28.4 µM (inactive),42.8 µM (inactive),30.1 µM (inactive),94.2 µM (inactive),96.6 µM (inactive),> 100 µM (inactive),58.3 µM (inactive),83.2 µM (inactive),32.5 µM (inactive),97.7 µM (inactive),21.2 µM (inactive),16 µM (inactive),31.1 µM (inactive),61 µM (inactive),,
CCCCC1Cc2cc(OC)ccc2-c2nc3cc(OC)ccc3n21.CCCCC1Cc2cc(OC)ccc2-c2nc3ccc(OC)cc3n21 (stereo not given),14 µM (inactive),13.8 µM (inactive),12.6 µM (inactive),3.37,10.7 µM (inactive),11.1 µM (inactive),16.4 µM (inactive),15 µM (inactive),13.1 µM (inactive),16.9 µM (inactive),,,14.7 µM (inactive),9.73 µM (inactive),11.6 µM (inactive),13.1 µM (inactive),14.4 µM (inactive),12.3 µM (inactive),16 µM (inactive),17 µM (inactive)
CC(O)C1OC(O)C2OC(C)(C)OC12 (stereo not given),> 100 µM (inactive),> 100 µM (inactive),> 100 µM (inactive),> 100,> 100 µM (inactive),> 100 µM (inactive),> 100 µM (inactive),> 100 µM (inactive),> 100 µM (inactive),> 100 µM (inactive),> 100 µM (inactive),> 100 µM (inactive),> 100 µM (inactive),> 100 µM (inactive),> 100 µM (inactive),> 100 µM (inactive),> 100 µM (inactive),> 100 µM (inactive),,
Cc1ccc(N(C)S(=O)(=O)c2ccccc2[N+](=O)[O-])cc1,39.6 µM (inactive),,55.1 µM (inactive),46.7,34 µM (inactive),,32.4 µM (inactive),21.6 µM (inactive),41 µM (inactive),65.5 µM (inactive),52.1 µM (inactive),30.8 µM (inactive),83 µM (inactive),64.9 µM (inactive),47.4 µM (inactive),77.4 µM (inactive),41.7 µM (inactive),40.5 µM (inactive),33.2 µM (inactive),34.9 µM (inactive)
Oc1cc(Cl)cc2cc(Cl)cnc12,3.22 µM (inactive),1.78 µM (inactive),2.85 µM (inactive),0.598,22.8 µM (inactive),0.596 µM (active),0.597 µM (active),3.3 µM (inactive),3.56 µM (inactive),17.5 µM (inactive),1.92 µM (inactive),,2.3 µM (inactive),4 µM (inactive),1.56 µM (inactive),3.34 µM (inactive),3.73 µM (inactive),3.21 µM (inactive),2.25 µM (inactive),5.07 µM (inactive)
COc1ccc(/C=C2\N=C(c3ccccc3)N(C3Nc4cc5c(cc4S3)NC(N3C(=O)/C(=C/c4ccc(OC)cc4)N=C3c3ccccc3)S5)C2=O)cc1 (stereo not given),36.8 µM (inactive),,16.7 µM (inactive),38.5,46.2 µM (inactive),> 100 µM (inactive),37.3 µM (inactive),> 100 µM (inactive),> 100 µM (inactive),> 100 µM (inactive),> 100 µM (inactive),31.6 µM (inactive),,,9.68 µM (inactive),65.3 µM (inactive),> 100 µM (inactive),> 100 µM (inactive),,> 100 µM (inactive)
C(=C\N1CCCCC1)/c1nnnn1-c1ccccc1,> 100 µM (inactive),19.6 µM (inactive),23.5 µM (inactive),23.6,84.5 µM (inactive),27.7 µM (inactive),17.6 µM (inactive),14.1 µM (inactive),20.8 µM (inactive),42.1 µM (inactive),21.9 µM (inactive),,26.2 µM (inactive),32.6 µM (inactive),23.4 µM (inactive),13.5 µM (inactive),56.2 µM (inactive),30 µM (inactive),55.5 µM (inactive),13.9 µM (inactive)
CC[C@@]1(C[C@H]2C[C@@]3(C(=O)OC)c4[nH]c5ccccc5c4CCN3C2=O)COC2(CCCCC2)O1,24.5 µM (inactive),,61.9 µM (inactive),33.3,27.4 µM (inactive),43.9 µM (inactive),32.8 µM (inactive),37.8 µM (inactive),> 100 µM (inactive),55.8 µM (inactive),33.4 µM (inactive),32.2 µM (inactive),45.7 µM (inactive),12.5 µM (inactive),31.3 µM (inactive),29.3 µM (inactive),20 µM (inactive),18.1 µM (inactive),55.3 µM (inactive),19.5 µM (inactive)

# From ChEMBL document CHEMBL1201862, “PubChem BioAssay data set” (2004)
